# What was measured:
# [1] = tested on: THP1 macrophages; test: qPCR gene expression in THP1 macrophages; assay type: cell-based, human; conditions: 1 μM VT107 vs vehicle
# Excerpt: To determine if knockdown of TEAD mimicked iTEAD effects, THP1 cells were transduced with shRNAs targeting TEAD 1, 3 and 4 or GFP as a control. Knockdown was confirmed by western blot with a pan TEAD antibody (FIG. 13, Panel A). […] TEAD knockdown in THP1 macrophages decreased protumor inflammatory cytokines CXCL2, 5, and 6 (FIG. 12, Panel C). […] Signaling pathways related to inflammatory diseases, such as rheumatoid arthritis, were decreased (FIG. 12, Panel D), as well as the inflammatory upstream regulators LPS and TNF (FIG. 12, Panel E). The score for M2-like upstream regulators, OSM (Shrivastava et al., 2019) and IL17A (Miller et al., 2020) was decreased by TEAD knockdown yet importantly, IL12 and the immune modulator used to enhance immunotherapy, NC410, scores were increased (Ramos et al., 2021) (FIG. 12, Panel D). Taken together, the response to iTEAD treatment or TEAD knockdown enhanced macrophages interaction with tumor cells and IL12 signaling. The global anti-inflammatory effect and the repression of the M2-like macrophage phenotypes are known to oppose the establishment of a hospitable metastatic niche (McGinnis et al., 2024; Sica et al., 2008; Noy & Pollard, 2014).
# Total RNA was extracted from cell lines using a RNeasy Mini Kit (Qiagen, #74104) according to the manufacturer's instructions. cDNA from total RNA was made with the iScript cDNA synthesis kit according to the manufacturer's protocol (Biorad, #170-8891) and qPCR was performed in an iCycler iQ (BioRad) using the iQ SYBR Green Supermix (BioRad, #170-8882).
# [2] = tested on: T-cells; test: Degranulation assay of T-cells co-cultured with 4T1 cells; assay type: cell-based, BALB/c mice
# Procedure: The hippo pathway has been implicated in T-cell development and function (Du et al., 2014; Ueda et al., 2012). For example, YAP expression is essential for tumor immune suppression by Treg cells that attenuates CD8 T-cell immunity (Geng et al., 2017; Ni et al., 2018; Lebid et al., 2020). […] To investigate whether VT107 directly affected T-cells, T-cells treated with VT107 were co-cultured with 4T1 cells in 2D for 72 hours. […] To further confirm T-cell activation upon TEAD activity reduction, we used Jurkat cells, a CD4 positive human lymphoma cell line (Schneider et al., 1977). […] However, here we show the specific effect of TEAD reduction on granzyme gene expression and degranulation that result in the killing of cancer cells.
# T-cells were isolated from the spleens of naïve BALB/c as described above and treated in vitro with DMSO control or VT107 for 24 hours. T-cells were then co-cultured with 4T1 cells with the same treatment conditions. After 72 hours, all cells were collected and subdued to flow cytometry using anti-CD45-AF700 (Biolegend, 103128), anti-CD8-BV785 (Biolegend, 100750), anti-CD4-Pacific Blue (Biolegend, 116007), anti-CD107a-PE/Cy7 (Biolegend, 121620), and Helix NP Blue (Biolegend, 425305). Analysis was performed on the BD FACSymphony Δ3 flow cytometer analyzer, and results were analyzed using FCS Express 7 Research (De Novo Software).
# [3] = tested on: bone marrow-derived macrophages; test: Cytokine array of conditioned media, bone marrow-derived macrophages; assay type: cell-based, mouse; conditions: 1 μM VT107 for 24 hours
# Excerpt: Due to the shifts in immune signaling observed in the lung tissue upon TEAD inhibition (FIG. 9), immune cell populations were first analyzed by flow cytometry in the lungs and spleens of tumor naïve mice. Consistent with the Cibersort analysis of RNA-seq data, there was a decrease in the monocytes population and an increase in the tissue-resident alveolar macrophages (AM) (FIG. 10, Panel A). […] Next, it was sought to determine the specific effects of iTEAD treatment on lung resident versus bone-marrow derived macrophages, as the dynamics of these cell populations are crucial for the establishment of the metastatic niche (Ries et al., 2014; Qian et al., 2011). Macrophages were retrieved from the lungs by isolating F4/80+ cells, a specific marker for murine macrophages, by FACS (fluorescence-activated cell sorting) as well as bone marrow-derived macrophages from the femurs of naïve C57BL/6 mice that were then differentiated in vitro using macrophage colony stimulating factor (M-CSF). Macrophages were treated with 1 μM of VT107 for 24 hours before the conditioned media was collected and analyzed on a cytokine array. […] There was no change in the level of the other cytokines detected (FIG. 10, Panel B). […]
substance,measurement,setting,value
VT107,CD80 gene expression level,[1],increase
same,IL12 gene expression level,[1],increase
same,"expression of YAP/TEAD target genes CTGF, S100Δ8 and S100Δ9",[1],downregulated
same,"expression of YAP/TEAD target genes CTGF, S100Δ8 and S100Δ9",[1]; listed as iTEAD,decreased expression
same,T-cell degranulation marker CD107a,"[2]; 1 μM VT107, co-culture with 4T1 cells 72 hours, flow cytometry",significantly increased
same,IFNγ levels,"[2]; T-cells treated with VT107, co-cultured with 4T1 cells in 2D for 72 hours",no change
same,secreted IL4 levels,[3],reduced
same,secreted IL12,[3],no effect

# From US20250352524A1, “PREVENTION OF METASTATIC OUTGROWTH USING TEAD INHIBITORS” (Georgetown University, priority 2024, published 2025)
